Test results published in PubChem BioAssay (NCI).
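All cell lines were grown in 96-well plates and treated with compound for 48 hours. TGI: concentration producing complete growth inhibition.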 *1 amine or outer side, *2 acyl side, *3 side chain or, on linkers, in order; H or OH if unused. Where a SMILES comes first, the peptide text is derived from it. [ ]: non-standard residue; d: D form. The star is where a group is joined. X31 = CC(=O)N(C)SCC(N[*:1])C(=O)[*:2]; Cbz = O=C(OCc1ccccc1)*; Bn = c1ccc(C*)cc1; For = O=C*

Key:
Experiment in all cases: NCI-60 cell line screen, 48 h
[1] = test system: A549 NSCLC
[2] = test system: LOX IMVI melanoma
[3] = test system: MDA-N
[4] = test system: SK-OV-3 ovarian
[5] = test system: KM12 colon
[6] = test system: BT-549 breast
[7] = test system: TK-10 renal
[8] = test system: EKVX NSCLC
[9] = test system: MCF7 breast
[10] = test system: HCT-116 colon
[11] = test system: HOP-62 NSCLC
[12] = test system: HT29 colon
[13] = test system: K-562 leukemia
[14] = test system: UACC-62 melanoma
[15] = test system: SK-MEL-28 melanoma
[16] = test system: U251 CNS
[17] = test system: NCI-H226 lung
[18] = test system: NCI-H460 lung
[19] = test system: MDA-MB-231 breast
[20] = test system: MDA-MB-435

Structure (SMILES) | TGI [1] [µM] | TGI [2] [µM] | TGI [3] [µM] | TGI [4] [µM] | TGI [5] [µM] | TGI [6] [µM] | TGI [7] [µM] | TGI [8] [µM] | TGI [9] [µM] | TGI [10] [µM] | TGI [11] [µM] | TGI [12] [µM] | TGI [13] [µM] | TGI [14] [µM] | TGI [15] [µM] | TGI [16] [µM] | TGI [17] [µM] | TGI [18] [µM] | TGI [19] [µM] | TGI [20] [µM]
COC(=O)C1(CCC(C)=O)CCCCCC1=O (stereo unspecified) | > 100 | > 100 | > 100 | > 100 | > 100 | > 100 | > 100 | > 100 | > 100 | > 100 | > 100 | > 100 | > 100 | > 100 | > 100 | > 100 | > 100 | > 100 | > 100 | > 100
COc1ccc2[nH]cc(CCNC(=O)[C@H](Cc3ccccc3)NC(=O)[C@@H](NCC(F)(F)F)C(C)C)c2c1 | 70 | 37.6 | 34 | 33.3 | 49.7 | 42.5 | 57.4 | 44 | 36.5 | 32 | 36.2 | 31.5 | > 100 | 36.2 | 31.8 | 39 | 44 | 46.3 | 35.9 | 34.8
O=C(NC1=NCC(CN2CCN(c3ccccc3)CC2)O1)Nc1ccccc1 (stereo unspecified) | > 100 | > 100 | > 100 | > 100 | > 100 | > 100 | > 100 | > 100 | > 100 | > 100 | > 100 | > 100 | > 100 | > 100 | > 100 | > 100 | > 100 | > 100 | > 100 | > 100
O=C1/C(=C/c2cccc(Br)c2)CCc2ccccc21 | 34.6 | 28.5 | 24.5 | 47.2 | 20.7 | 22.2 | 31 | 32.7 | 14.9 | 19.9 | 30.1 | 27.1 | 29.9 | 22.4 | 33.8 | 28 | 31.1 | 28.5 | 35.9 | 25.4
CCOC(=O)/C(C#N)=C\c1ccc(N(CCC(=O)O)CCC(=O)O)c(I)c1 | > 10 | > 10 | > 10 | > 10 | > 10 | > 10 | > 10 | > 10 | > 10 | > 10 | > 10 | > 10 | > 10 | > 10 | > 10 |  | > 10 | > 10 | > 10 | > 10
CC(C)Cn1cnc2c(NCC(C)O)nc3ccccc3c21 (stereo unspecified) | > 100 | > 100 | > 100 | > 100 | > 100 | > 100 | > 100 | > 100 | > 100 | > 100 | > 100 | > 100 | > 100 | > 100 | > 100 | > 100 | > 100 | > 100 | > 100 | > 100
C=CCN1C(=O)/C(=C/c2ccc(OC)cc2)N=C1SC/C=C/C | > 100 | > 100 | > 100 | > 100 | > 100 | > 100 | > 100 | > 100 | > 100 | > 100 | > 100 | > 100 | > 100 | > 100 | > 100 | > 100 | > 100 | > 100 | > 100 | > 100
O=C1CCC2C(O)c3cc4c(cc3C(c3ccc5c(c3)OCO5)N12)OCO4 (stereo unspecified) | > 100 | > 100 | > 100 | > 100 | > 100 | > 100 | > 100 | > 100 | > 100 | > 100 | 63.7 | > 100 | > 100 | > 100 | > 100 | 60.9 | > 100 | > 100 | > 100 | > 100
CCc1c2c([nH]c(=S)c1C#N)CCC2 | > 100 | > 100 | > 100 | > 100 | > 100 | > 100 | > 100 | 75.6 | > 100 | > 100 | > 100 | > 100 | > 100 | > 100 | > 100 | > 100 | > 100 | > 100 | > 100 | > 100
CC1=NN(C(=O)c2ccccc2O)C(=O)/C1=C/c1ccco1 | > 100 | > 75.5 | > 100 | > 82 | > 100 | > 100 | > 100 | 44.2 | 37.9 | > 100 |  | > 100 | > 100 | 6.27 | > 100 | > 100 | 44.4 | > 60.5 | > 100 | > 100
CC(=O)C(=C(c1ccccc1)c1ccccc1)c1ccccc1 | > 100 | > 100 | > 100 | > 100 | > 100 | > 100 | > 100 | 80.2 | > 100 | > 100 | > 100 | > 100 | > 100 | > 100 | > 100 | > 100 | > 100 | > 100 | > 100 | > 100
Cn1c2ccccc2c2c(-c3ccccc3)cc3c(c21)C(=O)C=CC3=O | > 10 | > 10 | > 7.18 | > 10 | > 8.77 | 3.04 | 3.4 | > 8.39 | 4.35 | 2.91 | > 10 | > 9 | > 3.46 | 2.64 | 4.34 | > 9.67 | 5.04 | > 10 | 5.72 | 4.32
C=CCN1C(=O)/C(=C/c2ccco2)N=C1SC/C=C/C | > 100 | 80.6 | 77.5 | > 100 | > 100 | > 100 | > 100 | > 100 | 65.1 | > 100 | > 100 | > 100 | > 100 | 73.7 | > 100 | > 100 | > 100 | > 100 | > 100 | > 100
NC(N)=N/N=C/c1c(-c2ccc(Cl)cc2)nc2sccn12 | 3.15 |  | 3.33 | 10.8 |  | 12 | 6.53 | 31.2 | 3.48 | 2.95 | 3.56 | 3.23 | 14.3 | 3.39 | 3.44 | 3.59 | 7.49 | 3.53 | 8.15 | 3.43
O=S1(=O)N=C(SCc2ccccc2)N(c2ccccc2)c2ccncc21 | > 100 | > 100 | 89.6 | > 100 | > 100 | 94.4 | > 100 | > 100 | > 100 | > 100 | > 100 | > 100 | > 100 | > 100 | > 100 | > 100 | > 100 | > 100 | > 100 | > 100
C=CCNC(=O)NC(=O)CSC1=NNC2(C(=O)N1)c1ccccc1-c1ccccc12 | > 10 | > 10 | > 10 | > 10 | > 10 | > 10 | > 10 | > 10 | > 10 | > 10 | > 10 | > 10 | > 10 | > 10 | > 10 |  | > 10 | > 10 | > 10 | > 10
O=C(Nc1ccc(Cl)cc1)NS(=O)(=O)c1coc2cc(F)ccc2c1=O | > 100 | > 100 | > 100 | > 100 | > 100 | > 100 | > 100 | > 100 | > 100 |  | > 100 | > 100 | > 100 | > 100 | > 100 | > 100 | > 100 | > 100 | > 100 | > 100
CC(=O)N(C)SCC(NC(=O)C(Cc1ccccc1)NC(=O)OCc1ccccc1)C(=O)NC(Cc1ccccc1)C(=O)NC(Cc1cn(C=O)c2ccccc12)C(=O)NC(CCCCNC(=O)OCc1ccccc1)C(=O)NC(C(=O)NC(CSN(C)C(C)=O)C(=O)NC(C(N)=O)C(C)OCc1ccccc1)C(C)OCc1ccccc1 (stereo unspecified) (Cbz-F[X31]FW(For)K(Cbz)T(Bn)[X31]T(Bn)-NH2; configuration not given here) | > 100 | > 100 | > 100 | 96.1 | > 100 | 68.1 | 57.2 | > 100 | > 100 | > 100 | > 100 | > 100 | > 100 | > 100 | > 100 | > 100 | > 100 | > 100 | 30.5 | > 100
CN(C)Nc1cc(=O)[nH]c(=O)[nH]1 | > 100 | > 100 | > 100 |  | > 100 | > 100 | > 100 | > 100 | > 100 | > 100 | > 100 | > 100 | > 100 |  | > 100 | > 100 | > 100 | > 100 | > 100 | > 100
CCOc1cc(NC(C)=O)ccc1C(=O)NN1C(=O)C(Cl)C1c1ccccc1 (stereo unspecified) | 33.3 | 3.55 | 32.9 | 31.7 | 32.9 | 25.6 | 31.2 | 28.7 | 22.9 | 38.9 | 44.4 | 31.2 | 23.9 | 23.3 | 36.4 |  | 46.3 | 33.6 | 26.7 | 26
COC(=O)/C=C(/C)n1nc2ccccc2n1 | > 100 |  | > 100 | > 100 | > 100 | > 100 | > 100 | > 100 | > 100 | > 100 | > 100 | > 100 | > 100 | > 100 | > 100 | > 100 | > 100 | > 100 | > 100 | > 100
O=C1C(Cl)C2(CC(/C=C/c3ccccc3Cl)=NN2c2cccc(S(=O)(=O)O)c2)N1c1nc2ccccc2s1 (stereo unspecified) | > 100 | 27.4 | > 100 |  | > 100 | > 100 | 84.6 | > 100 | > 100 | > 100 |  | > 100 | > 100 | > 100 | > 100 | > 100 | > 100 | > 100 | > 100 | 24.3
CC(C)OC(=O)c1ccc(NCc2cc(O)ccc2O)cc1Cl | > 76.7 | > 100 | 22.6 | 49.2 | > 38.1 | 1.57 | 20.2 | 25.5 | > 45.2 | 52.5 | > 64.5 | > 93 |  | 18.6 | 38.6 | 24.6 | > 49.9 | 23.7 | > 54 | 23.3
COC(=O)C1(C(=O)OC)Cc2ccc(OC)cc2C2=C1C(=O)c1ccccc1C2=O | 30.9 | 5.39 | 3.36 |  | 23.5 | 37.3 | 33.4 | 19.1 | 7.3 | 10.9 | 21.4 | 59.5 | 4.37 | 4.37 | 31.4 | 14.8 | 36.9 | 33 | 4.34 | 3.52
